Assay: Solubility studies in 50/50 alcohol/ethyl lactate blends
Conditions: for Final concentration dissolved (clear, free of particulates): ambient temperature about 20-25 C

- Solubility (ethanol/ethyl lactate 50/50 blend (conclusion)): greater than 10 % w/w
- Final concentration dissolved (clear, free of particulates) (ethyl alcohol/ethyl lactate blend 50/50 w/w): 10.31%
- Solubility (isopropanol/ethyl lactate 50/50 blend (conclusion)): greater than 10 % w/w
- Final concentration dissolved (clear, free of particulates) (isopropyl alcohol/ethyl lactate blend 50/50 w/w): 10.07%
Compound: Clc1ccccc1C(c1ccccc1)(c1ccccc1)n1ccnc1 [clotrimazole, Clotrimazole]
